{
  "source": "paper PMC4433817",
  "about": "(Journal of molecular biology, 2015)",
  "target": "IspG (GcpE) (Thermus thermophilus, UniProt Q5SLI8)",
  "sequence (Q5SLI8 whole entry)": "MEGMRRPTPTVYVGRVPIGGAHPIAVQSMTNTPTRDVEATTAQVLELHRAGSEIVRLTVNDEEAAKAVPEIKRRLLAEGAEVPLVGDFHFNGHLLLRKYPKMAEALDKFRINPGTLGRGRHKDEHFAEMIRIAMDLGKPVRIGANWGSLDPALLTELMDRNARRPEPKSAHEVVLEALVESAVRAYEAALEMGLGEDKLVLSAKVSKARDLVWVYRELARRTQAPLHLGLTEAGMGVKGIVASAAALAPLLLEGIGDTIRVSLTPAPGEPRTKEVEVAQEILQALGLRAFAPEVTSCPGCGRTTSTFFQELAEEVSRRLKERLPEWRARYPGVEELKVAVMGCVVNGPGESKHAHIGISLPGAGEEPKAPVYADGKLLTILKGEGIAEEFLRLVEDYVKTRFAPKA",
  "assay": "co-crystal X-ray structure",
  "assay_type": "biochemical",
  "data": [
    {"smiles": "O=P(O)(O)OP(=O)(O)O", "note": "[compound 6, diphosphate]", "values": [
      {"measurement": "IC50", "value": 20, "unit": "µM"}
    ]}
  ]
}
